Data taken from patent publication USRE44733E1, “6-mercapto-cyclodextrin derivatives:reversal agents for drug-induced neuromuscular block” (Merck Sharp & Dohme B.V., priority 1999, dated 2014).

System: neuromuscular block, induced by the muscle relaxant rocuronium bromide (Roc)
Experiment: Reversal of neuromuscular blockade in anaesthetized guinea pigs in vivo
Conditions: for concentration at maximum reversal (at conc.) / % max reversal: anaesthetized guinea pigs, rocuronium bromide steady-state block; for concentration at maximum reversal (at conc.): dose of reversal agent at which % max reversal was seen; for % max reversal: maximum reversal; for ED50: dose producing 50% reversal of steady-state neuromuscular block: anaesthetized male Dunkin-Hartley guinea pigs, steady-state block of 85-90% by continuous rocuronium bromide infusion, reversal agent given by jugular vein catheter, M. gastrocnemius contractions
Procedure: Reversal of Neuromuscular Blockade in Anaesthetized Guinea Pigs in vivo
Male Dunkin-Hartley guinea pigs (bodyweight: 600-900 g) were anaesthetized by i.p. administration of 10 mg/kg pentobarbitone and 1000 mg/kg urethane. After tracheotomy, the animals were artificially ventilated using a Harvard small animal ventilator. A catheter was placed into the carotid artery for continuous monitoring of arterial blood pressure and the taking of blood samples for blood gas analysis. Heart rate was derived from the blood pressure signal. The sciatic nerve was stimulated (rectangular pulses of 0.5 ms duration at 10 s (0.1 Hz) intervals at a supramaximal voltage, using a Grass S88 Stimulator) and the force of M. gastrocnemius contractions was measured using a Grass FT03 force-displacement transducer. Contractions, blood pressure and heart rate were recorded on a multichannel Grass 7D recorder. Catheters were placed in both jugular veins. One catheter was used for the continuous infusion of a neuromuscular blocking agent. The infusion rate of the neuromuscular blocking agent was increased until a steady-state block of 85-90% was obtained. The other catheter was used for administration of increasing doses of the reversal agent. During continuous infusion of the neuromuscular blocking agent, single doses of increasing concentration of reversal agent were given. At the end of the experiment, the measured force of muscle contractions was plotted against the concentration of reversal agent, and using regression analysis techniques, the 50% reversal concentration was calculated. Results for the reversal of the neuromuscular block, induced by the muscle relaxant rocuronium bromide (Roc), by the 6-mercapto-cyclodextrin derivatives of Examples 1-19 are presented in Table I. For comparison, the reversal activity of the parent compounds β-cyclodextrin and γ-cyclodextrin are included as well.

O=C([O-])c1ccccc1SC[C@H]1O[C@@H]2O[C@H]3[C@H](O)[C@@H](O)[C@@H](O[C@H]4[C@H](O)[C@@H](O)[C@@H](O[C@H]5[C@H](O)[C@@H](O)[C@@H](O[C@H]6[C@H](O)[C@@H](O)[C@@H](O[C@H]7[C@H](O)[C@@H](O)[C@@H](O[C@H]8[C@H](O)[C@@H](O)[C@@H](O[C@H]9[C@H](O)[C@@H](O)[C@@H](O[C@H]1[C@H](O)[C@H]2O)O[C@@H]9CO)O[C@@H]8CO)O[C@@H]7CO)O[C@@H]6CO)O[C@@H]5CO)O[C@@H]4CO)O[C@@H]3CO.[Na+] [example 2, 6mono-Deoxy-6-mono-(2-carboxyphenyl)thio-γ-cyclodextin, Sodium Salt]
concentration at maximum reversal (at conc.): (11) μmol · kg^−1 | % max reversal: 93% | ED50: dose producing 50% reversal of steady-state neuromuscular block: 1.30 µmol/kg

OCCSC[C@H]1O[C@@H]2O[C@H]3[C@H](O)[C@@H](O)[C@@H](O[C@H]4[C@H](O)[C@@H](O)[C@@H](O[C@H]5[C@H](O)[C@@H](O)[C@@H](O[C@H]6[C@H](O)[C@@H](O)[C@@H](O[C@H]7[C@H](O)[C@@H](O)[C@@H](O[C@H]8[C@H](O)[C@@H](O)[C@@H](O[C@H]9[C@H](O)[C@@H](O)[C@@H](O[C@H]1[C@H](O)[C@H]2O)O[C@@H]9CSCCO)O[C@@H]8CSCCO)O[C@@H]7CSCCO)O[C@@H]6CSCCO)O[C@@H]5CSCCO)O[C@@H]4CSCCO)O[C@@H]3CSCCO [example 13, 6-Per-deoxy-6-per(2-hydroxyethyl)thio-γ-cyclodextrin]
concentration at maximum reversal (at conc.): (2.0) μmol · kg^−1 | % max reversal: 96% | ED50: dose producing 50% reversal of steady-state neuromuscular block: 0.20 µmol/kg

O=C([O-])c1cccc(SCC2OC3OC4C(CSc5cccc(C(=O)[O-])c5)OC(OC5C(CSc6cccc(C(=O)[O-])c6)OC(OC6C(CSc7cccc(C(=O)[O-])c7)OC(OC7C(CSc8cccc(C(=O)[O-])c8)OC(OC8C(CSc9cccc(C(=O)[O-])c9)OC(OC9C(CSc%10cccc(C(=O)[O-])c%10)OC(OC%10C(CSc%11cccc(C(=O)[O-])c%11)OC(OC2C(O)C3O)C(O)C%10O)C(O)C9O)C(O)C8O)C(O)C7O)C(O)C6O)C(O)C5O)C(O)C4O)c1.[Na+].[Na+].[Na+].[Na+].[Na+].[Na+].[Na+].[Na+] (stereo not drawn) [example 3, 6-Per-deoxy-6-per-(3-carboxyphenyl)thio-γ-cyclodextrin, Sodium Salt]
concentration at maximum reversal (at conc.): (1.28) μmol · kg^−1 | % max reversal: 102% | ED50: dose producing 50% reversal of steady-state neuromuscular block: 0.28 µmol/kg

O=C([O-])c1ccc(SCC2OC3OC4C(CO)OC(OC5C(CO)OC(OC6C(CO)OC(OC7C(CO)OC(OC8C(CO)OC(OC9C(CO)OC(OC%10C(CO)OC(OC2C(O)C3O)C(O)C%10O)C(O)C9O)C(O)C8O)C(O)C7O)C(O)C6O)C(O)C5O)C(O)C4O)cc1.[Na+] (stereo not drawn) [example 1, 6-mono-Deoxy-6-mono-(4-carboxyphenyl)thio-γ-cyclodextrin, Sodium Salt]
concentration at maximum reversal (at conc.): (8.0) μmol · kg^−1 | % max reversal: 102% | ED50: dose producing 50% reversal of steady-state neuromuscular block: 0.94 µmol/kg

CNC(=O)CSCC1OC2OC3C(CSCC(=O)NC)OC(OC4C(CSCC(=O)NC)OC(OC5C(CSCC(=O)NC)OC(OC6C(CSCC(=O)NC)OC(OC7C(CSCC(=O)NC)OC(OC8C(CSCC(=O)NC)OC(OC9C(CSCC(=O)NC)OC(OC1C(O)C2O)C(O)C9O)C(O)C8O)C(O)C7O)C(O)C6O)C(O)C5O)C(O)C4O)C(O)C3O (stereo not drawn) [example 14, 6-Per-deoxy-6-per(N-methylamidomethyl)thio-γ-cyclodextrin]
concentration at maximum reversal (at conc.): (7.3) μmol · kg^−1 | % max reversal: 102% | ED50: dose producing 50% reversal of steady-state neuromuscular block: 1.54 µmol/kg
